Literature values, collected in patent publication US20110071026A1, “LOW VISCOSITY, AQUEOUS […] CONCENTRATES” (priority 2009, published 2011).

Settings: at 25° C.; acid form

In the case of `O=C(O)CNCP(=O)(O)O` [glyphosate, N-(phosphonomethyl)glycine], the solubility in water is given as “about 12 g/L”.
